Common to all, as to format: cell-based
Test [1] deals with T1, hTRPML3 (Homo sapiens, UniProt Q8TDD5).
T1 construct: expressed in transfected cells; host or cells: HEK-293 Trex (by analogy, 'performed as above')
T1 sequence (Q8TDD5 1-553): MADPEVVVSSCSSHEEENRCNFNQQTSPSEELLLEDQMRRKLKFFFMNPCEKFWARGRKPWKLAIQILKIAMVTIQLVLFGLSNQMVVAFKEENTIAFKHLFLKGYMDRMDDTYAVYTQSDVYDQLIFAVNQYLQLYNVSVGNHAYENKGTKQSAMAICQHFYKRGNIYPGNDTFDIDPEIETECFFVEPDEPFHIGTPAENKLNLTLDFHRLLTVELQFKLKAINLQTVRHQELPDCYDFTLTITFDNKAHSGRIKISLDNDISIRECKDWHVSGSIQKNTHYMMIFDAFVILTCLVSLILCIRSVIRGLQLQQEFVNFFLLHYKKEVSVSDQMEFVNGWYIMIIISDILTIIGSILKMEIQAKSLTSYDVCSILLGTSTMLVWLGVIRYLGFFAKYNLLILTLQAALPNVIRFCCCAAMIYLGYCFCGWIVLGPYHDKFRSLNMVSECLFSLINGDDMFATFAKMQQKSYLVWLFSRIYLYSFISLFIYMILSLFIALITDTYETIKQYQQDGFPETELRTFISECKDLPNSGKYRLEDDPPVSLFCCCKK
The test is described as follows: TRPML3 fluorescent (Fluo-4) assay. To be noted: activation; read-out: Secondary Screening: Fluo-4: hTRPML3: EC50. As for the experimental part:
(§1) Assays for TRPML2 and TRPML3 were performed as above for TRPML1, by substituting the appropriate TRPML2 or TRPML3 subtype for the TRPML1.
(§2) EC50 values were calculated using a non-linear regression of Prism.

Test [2] addresses hTRPML1 (Homo sapiens, UniProt Q9GZU1). Description: TRPML1 fluorescent (Fluo-4) assay. Further details: Secondary Screening: Fluo-4: hTRPML1: EC50 (M); HEK-293 Trex cells expressing hTRPML1. To be noted: activation; HEK-293 Trex cells expressing hTRPML1; read-out: Secondary Screening: Fluo-4: hTRPML1: EC50. As for the experimental part:
HEK-293 Trex cells were stably transfected with a construct consisting of the human coding sequence for TRPML1 cloned into the […] plasmid pCDNA5 T/O. Mutations were introduced into the TRPML1 sequence to facilitate expression on the cell surface (Silvia Vergarajauregui, Rosa Puertollano Traffic. 2006 March; 7(3): 337-353). Briefly, the cells are cultured in 150 mm round tissue culture dishes containing 20 mL of media. The day before the assay the cells are rinsed with DPBS—Ca—Mg and then treated briefly with Trypsin-EDTA. The Trypsin-EDTA is diluted with growth media, and cells are counted. 38×10^6 cells are re-plated into 150 mm round tissue culture dishes in media containing 0.5 ug/mL doxycycline to induce expression of hTRPML1.
The day of the experiment cells are lifted from the plates as above and collected by centrifugation. The cells are then suspended in dye loading buffer consisting of Ringer's solution supplemented with 0.1% Pluronic Acid and 1 micromolar Fluo4-AM dye. Cells are loaded for ˜60 minutes in the dark with occasional mixing. The cells are collected by centrifugation, the loading media aspirated, and the cells resuspended in 25 mL Ringer's solution and incubated ˜60 minutes in the dark. The cells are again collected by centrifugation, rinsed in Ringer's Solution and resuspended to 0.2×10^6 cells/mL in modified Ringer's solution containing 10 mM calcium.
Compounds are dissolved to a concentration of 10 millimolar with DMSO. Compound plates are created by dispensing compounds into 384 well black wall clear bottom plates (Greiner 781091). Positive and negative controls are included on each plate. Typically, different amounts of each compound are tested ranging from 100 nanoMoles (20 micromolar final concentration) decreasing in half-log steps to 31 picoMoles (6 nanomolar final concentration). Each concentration is typically tested in triplicate.
50 microliters of dye-loaded cells are dispensed into each well of the compound assay plate created above. The fluorescence in each well is then determined with an excitation wavelength of 480 nm and an emission wavelength of 540 nm using either a Molecular Devices SpectraMax multimode plate reader or a Hamamatsu FDSS/uCell plate imager.
The resulting fluorescence for each well is exported as an ascii file and loaded into our LIMS for analysis. The percent activity of each compound at each concentration is determined by comparison to the positive and negative control wells included in each plate.
as §2

The target in test [3] is T2, hTRPML2 (Homo sapiens, UniProt Q8IZK6).
T2 construct: expressed in transfected cells; host or cells: HEK-293 Trex (by analogy, 'performed as above')
T2 sequence (Q8IZK6 1-566): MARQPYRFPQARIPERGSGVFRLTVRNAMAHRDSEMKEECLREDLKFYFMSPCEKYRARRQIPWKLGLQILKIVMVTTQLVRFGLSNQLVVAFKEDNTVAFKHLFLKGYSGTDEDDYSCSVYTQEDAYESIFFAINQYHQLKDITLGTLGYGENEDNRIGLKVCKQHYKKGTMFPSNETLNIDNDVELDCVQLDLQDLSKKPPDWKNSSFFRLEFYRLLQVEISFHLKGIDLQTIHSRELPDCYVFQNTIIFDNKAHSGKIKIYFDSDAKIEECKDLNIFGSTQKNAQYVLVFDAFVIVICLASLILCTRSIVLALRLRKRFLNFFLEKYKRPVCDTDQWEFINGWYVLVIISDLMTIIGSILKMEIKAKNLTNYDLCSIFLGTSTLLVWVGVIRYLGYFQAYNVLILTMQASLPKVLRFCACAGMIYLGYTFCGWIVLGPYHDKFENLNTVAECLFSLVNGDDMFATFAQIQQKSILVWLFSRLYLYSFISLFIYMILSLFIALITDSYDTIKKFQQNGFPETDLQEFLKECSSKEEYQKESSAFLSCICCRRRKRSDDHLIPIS
The test is described as follows: TRPML2 fluorescent (Fluo-4) assay. To be noted: activation; read-out: Secondary Screening: Fluo-4: hTRPML2: EC50. The protocol: as §1, §2

Structures are written as SMILES.

hTRPML1, sequence (Q9GZU1 whole entry L15A/L16A/L577A/L578A, form open): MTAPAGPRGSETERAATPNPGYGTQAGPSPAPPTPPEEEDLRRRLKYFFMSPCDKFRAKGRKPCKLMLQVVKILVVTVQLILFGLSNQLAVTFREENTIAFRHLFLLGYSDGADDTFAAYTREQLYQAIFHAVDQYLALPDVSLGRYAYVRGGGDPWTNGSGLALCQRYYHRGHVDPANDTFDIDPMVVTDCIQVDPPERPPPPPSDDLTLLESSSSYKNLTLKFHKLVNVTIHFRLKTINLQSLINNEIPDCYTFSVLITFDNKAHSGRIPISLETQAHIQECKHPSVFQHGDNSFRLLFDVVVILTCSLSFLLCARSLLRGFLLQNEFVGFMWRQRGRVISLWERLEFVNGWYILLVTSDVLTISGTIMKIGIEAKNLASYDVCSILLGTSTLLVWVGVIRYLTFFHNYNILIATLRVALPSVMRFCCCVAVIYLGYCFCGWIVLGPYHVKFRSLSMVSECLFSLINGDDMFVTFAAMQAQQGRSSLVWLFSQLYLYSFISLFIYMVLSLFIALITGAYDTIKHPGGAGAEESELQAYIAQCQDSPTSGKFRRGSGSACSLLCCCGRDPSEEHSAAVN

Turning to `CN(C)S(=O)(=O)c1ccc(S(=O)(=O)N[C@H]2CCCC[C@@H]2N2CCN(c3ccccc3F)CC2)cc1` (relative stereo) [Compound 116, trans-N^1-(2-(4-(2-fluorophenyl)piperazin-1-yl)cyclohexyl)-N^4,N^4-dimethylbenzene-1,4-disulfonamide], the EC50 (as a rule, the concentration that produces a half-maximal response) in test [1] fell in the range of 300 to 1000 nM; in test [2] it was 1000 to 5000 nM.

On to `Cc1ccc(S(=O)(=O)N[C@H]2CCCC[C@@H]2N2CCN(c3ccc(Cl)cc3F)CC2)cc1` (relative stereo) [Compound 117, trans-N-(2-(4-(4-chloro-2-fluoro-phenyl)piperazin-1-yl)cyclohexyl)-4-methylbenzene-sulfonamide], for which the EC50 in test [1] was less than 300 nM; in test [2], 300 to 1000 nM. The like results for `CN(C)S(=O)(=O)c1ccc(S(=O)(=O)N[C@H]2CCCC[C@H]2N2CCN(c3ccc(Cl)cc3F)CC2)cc1` (stereo in doubt) [Compound 109, N^1-((1S,2R)-2-(4-(4-Chloro-2-fluorophenyl)piperazin-1-yl)cyclohexyl)-N^4,N^4-dimethylbenzene-1,4-disulfonamide] were, in that order, 300 to 1000 nM and 1000 to 5000 nM.

As for `CN([C@H]1CCN(c2ccc(Cl)cc2F)C1)[C@H]1CCCC[C@@H]1NS(=O)(=O)c1ccc(S(=O)(=O)N(C)C)cc1` (stereo in doubt) [Compound 119, trans-N^1-(2-(((S)-1-(4-chloro-2-fluorophenyl)-pyrrolidin-3-yl)(methyl)-amino)cyclohexyl)-N^4,N^4-dimethylbenzene-1,4-disulfonamide], the EC50 in test [2] was less than 300 nM; in test [3], more than 5000 nM. Regarding `CN(C)S(=O)(=O)c1ccc(S(=O)(=O)Nc2ccccc2N2CCC3(CN(c4ccc(Cl)cc4F)C3)C2)cc1` [Compound 102, N^1-(2-(2-(4-chloro-2-fluorophenyl)-2,6-diazaspiro[3.4]octan-6-yl)phenyl)-N^4,N^4-dimethylbenzene-1,4-disulfonamide], the EC50 in test [2] was 300 to 1000 nM. Same read-out and setting: next, `CN(C)S(=O)(=O)c1ccc(S(=O)(=O)Nc2ccccc2N2CCC3(CCN(c4ccc(Cl)cc4F)C3)C2)cc1` (stereo not shown) [Compound 103, N^1-(2-(7-(4-chloro-2-fluorophenyl)-2,7-diazaspiro[4.4]nonan-2-yl)phenyl)-N^4,N^4-dimethylbenzene-1,4-disulfonamide]: 300 to 1000 nM; `CN(c1ccc(Cl)cc1F)C1CCN(c2ccccc2NS(=O)(=O)c2ccc(S(=O)(=O)N(C)C)cc2)C1` (stereo not shown) [Compound 104, N^1-(2-(3-((4-chloro-2-fluorophenyl)(methyl)amino)pyrrolidin-1-yl)phenyl)-N^4,N^4-dimethylbenzene-1,4-disulfonamide]: less than 300 nM. Take `CN(C)S(=O)(=O)c1ccc(S(=O)(=O)N[C@H]2CCCC[C@@H]2N2CCN(c3ccc(Cl)cc3F)CC2)cc1` [Compound 105, N^1-((1S,2S)-2-(4-(4-chloro-2-fluorophenyl)piperazin-1-yl)cyclohexyl)-N^4,N^4-dimethylbenzene-1,4-disulfonamide]: the EC50 in test [2] was in the range of 300 to 1000 nM.

With `CN(C)S(=O)(=O)c1ccc(S(=O)(=O)Cc2ccccc2N2CCN(c3ccc(Cl)cc3F)CC2)cc1` [Compound 106, 4-(2-(4-(4-Chloro-2-fluorophenyl)piperazin-1-yl)benzylsulfonyl)-N,N-dimethylbenzenesulfonamide], the EC50 in test [2] was less than 300 nM. As to `CN(C)S(=O)(=O)c1ccc(S(=O)(=O)Nc2ccccc2N2C[C@H]3C[C@@H]2CN3c2ccc(Cl)cc2F)cc1` [Compound 107, N^1-(2-((1R,4R)-5-(4-chloro-2-fluorophenyl)-2,5-diazabicyclo[2.2.1]heptan-2-yl)phenyl)-N^4,N^4-dimethylbenzene-1,4-disulfonamide], the EC50 in test [2] lay within 300 to 1000 nM. `CN(C)S(=O)(=O)c1ccc(S(=O)(=O)Nc2ccccc2C2CCN(c3ccc(Cl)cc3F)CC2)cc1` [Compound 108, N^1-(2-(1-(4-chloro-2-fluorophenyl)piperidin-4-yl)phenyl)-N^4,N^4-dimethylbenzene-1,4-disulfonamide]: the EC50 was 300 to 1000 nM in test [1] and 1000 to 5000 nM in test [2]. The like results for `CN(c1ccccc1NS(=O)(=O)c1ccc(S(=O)(=O)N(C)C)cc1)[C@H]1CCN(c2ccc(Cl)cc2F)C1` [Compound 110, (S)-N^1-(2-((1-(4-chloro-2-fluorophenyl)pyrrolidin-3-yl)(methyl)amino)phenyl)-N^4,N^4-dimethylbenzene-1,4-disulfonamide] were, in that order, less than 300 nM and less than 300 nM. As to `CN(c1ccccc1NS(=O)(=O)c1ccc(S(=O)(=O)N(C)C)cc1)[C@@H]1CCN(c2ccc(Cl)cc2F)C1` [Compound 111, (R)-N^1-(2-((1-(4-chloro-2-fluorophenyl)pyrrolidin-3-yl)(methyl)amino)phenyl)-N^4,N^4-dimethylbenzene-1,4-disulfonamide], the EC50 in test [1] is less than 300 nM; in test [2] it was 300 to 1000 nM. The like results for `CN(c1ccccc1NS(=O)(=O)c1ccc(S(=O)(=O)N(C)C)cc1)C1CCN(c2ccccc2F)C1` (stereo not shown) [Compound 112, N^1-(2-((1-(2-Fluorophen-yl)pyrrolidin-3-yl)(meth-yl)amino)phenyl)-N^4,N^4-dimethylbenzene-1,4-disulfonamide] were, in that order, less than 300 nM and 300 to 1000 nM. For `CN(c1ccccc1NS(=O)(=O)c1ccc(S(=O)(=O)N(C)C)cc1)C1CCN(C(=O)OC(C)(C)C)C1` (stereo not shown) [Compound 114, tert-butyl 3-((2-((4-(N,N-dimethylsulfamoyl)phenyl)sulfonamido)phenyl)(methyl)amino)pyrrolidine-1-carboxylate] the same measures were 300 to 1000 nM and 1000 to 5000 nM.

As for `CN(C)S(=O)(=O)c1ccc(S(=O)(=O)Nc2ccccc2N2CCN(C34CC(C3)C4)CC2)cc1` [Compound 115, N^1-(2-(4-(bicyclo[1.1.1]pentan-1-yl)piperazin-1-yl)phenyl)-N^4,N^4-dimethylbenzene-1,4-disulfonamide], the EC50 in test [1] lay within 300 to 1000 nM; in test [2], 1000 to 5000 nM.

For `CN(C1CCCC[C@@H]1NS(=O)(=O)c1ccc(S(=O)(=O)N(C)C)cc1)[C@@H]1CCN(c2ccc(Cl)cc2F)C1` (stereo partly drawn) [Compound 118, trans-N^1-(2-(((R)-1-(4-Chloro-2-fluorophenyl)pyrrolidin-3-yl)(methyl)amino)cyclohexyl)-N^4,N^4-dimethylbenzene-1,4-disulfonamide], the EC50 in test [2] was less than 300 nM; in test [3], more than 5000 nM.

Values taken from patent publication US20240299348A1, “MODULATORS OF TRPML, THEIR COMPOSITIONS AND METHODS OF USE” (Caraway Therapeutics, Inc., priority 2021, published 2024).
